Values of other authors, collected in patent publication US20210127703A1, “FOOD PRODUCT USING AN IMPROVED SUGAR” (priority 2019, published 2021).

How the values were obtained:
[1] = after application of a dermal patch
[2] = transdermal; higher than for Δ8-THC
[3] = tested on: liver microsomal drug-metabolizing enzymes; details: in vitro; inhibiting hexobarbital metabolism in humans
[4] = in vivo
[5] = ingestion of 20 mg of THC in a chocolate cookie

CCCCCc1cc(O)c2c(c1)OC(C)(C)[C@@H]1CC=C(C)C[C@@H]21 [Δ8-THC]
duration steady-state plasma concentration maintained [1]: at least 48 h | mean steady-state plasma concentration [1]: 4.4 ng/mL | time to steady-state plasma concentration [1]: ≤ 1.4 h

CCCCCc1cc(O)c2c(c1)OC(C)(C)c1ccc(C)cc1-2 [CBN]
permeability relative to Δ8-THC [2]: 10 fold

C=C(C)[C@@H]1CCC(C)=C[C@H]1c1c(O)cc(CCCCC)cc1O [CBD, cannabidiol]
permeability relative to Δ8-THC [2]: 10 fold | inhibition of liver microsomal drug-metabolizing enzymes [3]: in vitro inhibitor of liver microsomal drug-metabolizing enzymes | excretion in the feces [4]: a large proportion of the dose is excreted unchanged in the feces | effect of CBD on pharmacokinetics of THC (CYP 2C; Hunt et al., except for a slight slowing of metabolism of 11-OH-THC to THC-COOH): not affected | inhibition of hydroxylation of THC to 11-OH-THC catalyzed by CYP 2C (CYP 2C; oral THC alone compared to a THC and CBD preparation): only partially inhibited

CCCCCc1cc(O)c2c(c1)OC(C)(C)[C@@H]1CCC(C)=C[C@@H]21 [THC]
time of peak THC concentration following ingestion [5]: 1 to 5 h
